Experimental data from patent US8440594B2, “Pyridothiazines having herbicidal action” (BASF SE, priority 2010, dated 2013).

What was measured:
Assay in all cases: Greenhouse herbicidal activity, post-emergence treatment
Assay type in all cases: in vivo
[1] = system: Chenopodium album (CHEAL); conditions: for pest or weed control at 500 g/ha: application rate 0.5 kg/ha; for herbicidal activity against CHEAL: scale 0 to 100
Description: (§1) The seeds of the test plants were sown separately for each species. For the post-emergence treatment, the test plants were first grown to a height of 3 to 15 cm, depending on the plant habit, and only then treated with the active ingredients which had been suspended or emulsified in water. For this purpose, the test plants were either sown directly and grown in the same containers, or they were first grown separately as seedlings and transplanted into the test containers a few days prior to treatment. Depending on the species, the plants were kept at 10-25° C. or 20-35° C. The test period extended over 2 to 4 weeks. During this time, the plants were tended, and their response to the individual treatments was evaluated. Evaluation was carried out using a scale from 0 to 100. 100 means no emergence of the plants, or complete destruction of at least the aerial moieties, and 0 means no damage, or normal course of growth. A good herbicidal activity is given at values of at least 70 and a very good herbicidal activity is given at values of at least 85. The plants used in the greenhouse experiments belonged to the following species: [table]

Setaria faberi (SETFA) = conditions: application rate 0.5 kg/ha, scale 0 to 100
Description: as §1

[2] = system: Abutilon theophrasti (ABUTH); conditions: application rate 0.25 kg/ha, scale 0 to 100
Description: as §1

[3] = system: Echinochloa crus-galli (ECHCG); conditions: scale 0 to 100
Description: as §1

[4] = system: Alopecurus myosuroides (ALOMY); conditions: scale 0 to 100
Description: as §1

Galium aparine (GALAP) = conditions: scale 0 to 100
Description: as §1

[5] = system: Amaranthus retroflexus (AMARE); conditions: scale 0 to 100
Description: as §1

Stellaria media (STEME) = conditions: scale 0 to 100
Description: as §1

[6] = Chenopodium album, application rate 0.25 kg/ha, scale 0 to 100, read-out: herbicidal activity against CHEAL
[7] = Chenopodium album, scale 0 to 100, read-out: herbicidal activity against CHEAL

CCCCN1c2cccnc2C(O)=C(c2ccc(S(C)(=O)=O)c(OC)c2C)S1(=O)=O [Compound I-32]
pest or weed control at 400 g/ha ([1]; Chenopodium album, application rate 0.4 kg/ha, scale 0 to 100, read-out: herbicidal activity against CHEAL): ≥ 85%

CON=C1CCS(=O)(=O)c2c1ccc(C1=C(O)c3ncccc3N(CC(F)F)S1(=O)=O)c2C [Compound I-22]
herbicidal activity against SETFA (Setaria faberi (SETFA)): good herbicidal activity (A good herbicidal activity is given at values of at least 70)

CCN1c2cccnc2C(O)=C(c2ccc(F)cc2F)S1(=O)=O [Compound I-63]
pest or weed control at 250 g/ha [1, 6]: ≥ 85%

CN1c2cccnc2C(O)=C(c2ccccc2C(F)(F)F)S1(=O)=O [Compound I-45]
herbicidal activity against ABUTH [2]: very good herbicidal activity (a very good herbicidal activity is given at values of at least 85)

O=S1(=O)C(c2cc(F)ccc2C(F)(F)F)=C(O)c2ncccc2N1CC(F)F [Compound I-3]
herbicidal activity against ECHCG ([3]; application rate 0.5 kg/ha): very good herbicidal activity (a very good herbicidal activity is given at values of at least 85)

O=S1(=O)C(c2ccccc2Cl)=C(O)c2ncccc2N1CC(F)F [Compound I-5]
herbicidal activity against ECHCG ([3]; application rate 0.5 kg/ha): good herbicidal activity (A good herbicidal activity is given at values of at least 70)

CCN1c2cccnc2C(O)=C(c2ccc(Cl)cc2Cl)S1(=O)=O [Compound I-40]
pest or weed control at 500 g/ha [1, 7]: ≥ 85%

O=S1(=O)C(c2cc(Cl)ccc2Cl)=C(O)c2ncccc2N1CC(F)F [Compound I-7]
herbicidal activity against ALOMY ([4]; application rate 0.5 kg/ha): very good herbicidal activity (a very good herbicidal activity is given at values of at least 85)
herbicidal activity against GALAP (Galium aparine (GALAP); application rate 0.5 kg/ha): good herbicidal activity (A good herbicidal activity is given at values of at least 70)

CC(C)N1c2cccnc2C(O)=C(c2ccccc2Cl)S1(=O)=O [Compound I-51]
pest or weed control at 500 g/ha [1, 7]: ≥ 85%

CN1c2cccnc2C(O)=C(c2ccccc2Cl)S1(=O)=O [Compound I-44]
pest or weed control at 100 g/ha ([1]; Chenopodium album, application rate 0.1 kg/ha, scale 0 to 100, read-out: herbicidal activity against CHEAL): ≥ 85%
herbicidal activity against ECHCG ([3]; application rate 0.1 kg/ha): very good herbicidal activity (a very good herbicidal activity is given at values of at least 85)

CC1=NOC(c2c(S(C)(=O)=O)ccc(C3=C(O)c4ncccc4N(CC(F)F)S3(=O)=O)c2C)C1 (stereo not shown) [Compound I-8]
herbicidal activity against AMARE ([5]; application rate 0.447 kg/ha): very good herbicidal activity (a very good herbicidal activity is given at values of at least 85)
herbicidal activity against CHEAL ([1]; application rate 0.447 kg/ha): very good herbicidal activity (a very good herbicidal activity is given at values of at least 85)

CCN1c2cccnc2C(O)=C(c2ccc(Cl)c(C)c2Cl)S1(=O)=O [Compound I-59]
pest or weed control at 154 g/ha ([1]; Chenopodium album, application rate 0.154 kg/ha, scale 0 to 100, read-out: herbicidal activity against CHEAL): ≥ 85%

COC(CN1c2cccnc2C(O)=C(c2ccccc2C(F)(F)F)S1(=O)=O)OC [Compound I-82]
herbicidal activity against ALOMY ([4]; application rate 0.25 kg/ha): very good herbicidal activity (a very good herbicidal activity is given at values of at least 85)

CCCN1c2cccnc2C(O)=C(c2ccc(Cl)cc2Cl)S1(=O)=O [Compound I-41]
pest or weed control at 500 g/ha [1, 7]: ≥ 85%

O=S1(=O)C(c2cc(Cl)cc(N3CCOCC3)c2C(F)(F)F)=C(O)c2ncccc2N1CC(F)F [Compound I-56, 3-[5-chloro-3-morpholino-2-(trifluoromethyl)phenyl]-1-(2,2-difluoroethyl)-2,2-dioxo-pyrido[3,2-c]thiazin-4-ol]
herbicidal activity against AMARE ([5]; application rate 0.25 kg/ha): good herbicidal activity (A good herbicidal activity is given at values of at least 70)

COc1c(S(C)(=O)=O)ccc(C2=C(O)c3ncccc3N(CC(C)C)S2(=O)=O)c1C [Compound I-33]
herbicidal activity against CHEAL ([1]; application rate 0.345 kg/ha): very good herbicidal activity (a very good herbicidal activity is given at values of at least 85)
herbicidal activity against ECHCG ([3]; application rate 0.345 kg/ha): very good herbicidal activity (a very good herbicidal activity is given at values of at least 85)

CN1c2cccnc2C(O)=C(c2ccc(Cl)cc2Cl)S1(=O)=O [Compound I-39]
pest or weed control at 500 g/ha [1, 7]: ≥ 85%

O=S1(=O)C(c2ccc(F)cc2F)=C(O)c2ncccc2N1CC(F)F [Compound I-62]
herbicidal activity against CHEAL ([1]; application rate 0.0625 kg/ha): very good herbicidal activity (a very good herbicidal activity is given at values of at least 85)
herbicidal activity against GALAP (Galium aparine (GALAP); application rate 0.0625 kg/ha): good herbicidal activity (A good herbicidal activity is given at values of at least 70)

CCN1c2cccnc2C(O)=C(c2ccc(Br)cc2Cl)S1(=O)=O [Compound I-81]
pest or weed control at 250 g/ha [1, 6]: ≥ 85%

CCOc1c(S(=O)(=O)CC)ccc(C2=C(O)c3ncccc3N(CC(C)C)S2(=O)=O)c1Cl [Compound I-29]
herbicidal activity against AMARE ([5]; application rate 0.154 kg/ha): very good herbicidal activity (a very good herbicidal activity is given at values of at least 85)

CS(=O)(=O)c1ccc(C2=C(O)c3ncccc3N(CC(F)F)S2(=O)=O)c(Cl)c1C1=NOCC1 [Compound I-66]
herbicidal activity against AMARE ([5]; application rate 0.075 kg/ha): very good herbicidal activity (a very good herbicidal activity is given at values of at least 85)
herbicidal activity against CHEAL ([1]; application rate 0.075 kg/ha): very good herbicidal activity (a very good herbicidal activity is given at values of at least 85)
herbicidal activity against STEME (Stellaria media (STEME); application rate 0.075 kg/ha): very good herbicidal activity (a very good herbicidal activity is given at values of at least 85)

Cc1c(C2=C(O)c3ncccc3N(CC(F)F)S2(=O)=O)ccc2c1C(=O)C(C)(C)CS2(=O)=O [Compound I-71]
herbicidal activity against CHEAL ([1]; application rate 0.25 kg/ha): good herbicidal activity (A good herbicidal activity is given at values of at least 70)

CCCCN1c2cccnc2C(O)=C(c2ccc(Cl)cc2Cl)S1(=O)=O [Compound I-42]
pest or weed control at 500 g/ha [1, 7]: ≥ 85%

CCN1c2cccnc2C(O)=C(c2cccc(OC(F)(F)F)c2Cl)S1(=O)=O [Compound I-34]
pest or weed control at 233 g/ha ([1]; Chenopodium album, application rate 0.233 kg/ha, scale 0 to 100, read-out: herbicidal activity against CHEAL): ≥ 85%
herbicidal activity against STEME (Stellaria media (STEME); application rate 0.233 kg/ha): very good herbicidal activity (a very good herbicidal activity is given at values of at least 85)

Cc1c(C2=C(O)c3ncccc3N(CC(F)F)S2(=O)=O)ccc2c1S(=O)(=O)CCC2(C)C [Compound I-10]
herbicidal activity against AMARE ([5]; application rate 0.041 kg/ha): very good herbicidal activity (a very good herbicidal activity is given at values of at least 85)
herbicidal activity against CHEAL ([1]; application rate 0.041 kg/ha): very good herbicidal activity (a very good herbicidal activity is given at values of at least 85)
